Experimental findings from article PMC4643908 (2015) are described below.

Test [1] has as its system Tebowned (RNA, riboswitch) GGACGAUUGAGGAUAUUUAGACAUAGAGAAGGCAAUGGAGAGAGAGCUUUUUAAAGAAACAACAACAACAAC
Description: chemical mapping. To be noted: mapping pattern changes on FMN.

Test [2] concerns V. vulnificus add adenine riboswitch (with expression platform segment) (RNA, riboswitch) GGGAACCGAGUAGGUUCGCUUCAUAUAAUCCUAAUGAUAUGGUUUGGGAGUUUCUACCAAGAGCCUUAAACUCUUGAUUAUGAAGUCUGUCGCUUUAUCCGAAAUUUUAUAAAGAGAAGACUCAUGAAUGGGAUCCGAGUAGGAUCCUGAAAAAAACAACAACAAC
Description: 1M7 SHAPE mutate-and-map chemical mapping. To be noted: 50 mM KCl, 25 mM K3PO4, 10 mM MgCl2; pH 6.5; room temperature; 5 mM adenine; protections in aptamer.

Turning to `Cc1cc2nc3c(=O)[nH]c(=O)nc-3n(C[C@H](O)[C@H](O)[C@H](O)COP(=O)(O)O)c2cc1C`, the binding result in test [1] is listed as “yes”.
In the case of `Nc1ncnc2[nH]cnc12`, the binding result in test [2] was “yes”.
